Consider 1 substance from patent US11660319B2, “Compositions comprising bacterial strains” (priority 2017, dated 2023).

The subject of assay [1] is U373 astroglioblastoma cells. Kind of assay: ROS generated by TBHP (DCFDA fluorescence). The settings on record: 10% bacteria supernatant. It counts as cell-based, human.
The test system of assay [2] is class II HDACs. Kind of assay: Specific HDAC activity analysis (fluorogenic assay kit, BPS Bioscience). It counts as biochemical. The settings on record: data not shown. As for the experimental part:
Specific HDAC inhibition activity was analysed for HDAC1, 2, 3, 4, 5, 6, 9 using fluorogenic assay kits for each type of HDAC (BPS Bioscience, CA). Assays were conducted according to manufacturer's instructions and each sample were performed in replicates. Cell free supernatants were diluted 1 in 10 and exposed to specific HDAC proteins provided in the kit to maintain consistency between methods.
The specific HDAC inhibition profile of the test bacteria strain was investigated. Specific HDAC inhibition assays (BPS Bioscience, CA) were carried out for Class I and Class II HDACs. The ability of the bacterial strain to inhibit HDAC enzymes was compared to butyrate, hexanoic and valeric acid (FIGS. 14 and 15).

Assay [3] has as its system differentiated neuroblasoma cells. Kind of assay: BDNF secretion in SHSY-5Y cells. It counts as cell-based, human. The note with it: in combination with retinoic acid (10 μM, differentiation); 50 μl bacteria SN. As for the experimental part:
SH-SY5-SY were plated in 24 wells plate at density of 60,000 cells/well and placed in the incubator. After 24 h, media were replaced with differentiation medium (growth medium containing 1% FBS) and 10 μM retinoic acid. Differentiation medium was replaced every other day and cells were used on day 10 of differentiation. For the treatment differentiation medium was removed and replaced with 450 ul of full growth media and 50 μl of bacteria SN was added to the treated wells or YCFA+ was added as negative Control.

The test system of assay [4] is HT29-mtx epithelial, mucin-producing cell monolayers. Kind of assay: mRNA expression of tight junction proteins in HT29-mtx (qRT-PCR). Format: cell-based. The note with it: 2 h incubation. As for the experimental part:
Total RNA was extracted using the RNeasy mini kit (Qiagen, Manchester, JUK) according to the manufacturer's instructions, and the RNA concentration determined by absorbance at 260/280 nm using a spectrophotometer (nano-Drop ND-1000; Thermo Scientific, Wilmington, Del.). For mRNA expression analysis, cDNA was prepared from total RNA using the High-Capacity cDNA reverse transcription kit (Applied Biosystems, UK) according to the manufacturer's instructions. The reverse transcription reactions were performed in a Thermo cycler (Biometra, Germany) at 25° C. for 10 min, 37° C. for 120 min, and 85° C. for 5 min, hold on at 4° C. Resulting cDNA was amplified in duplicates by the SYBR-Green PCR assay, and products were detected on QuantStudio 6 flex real-time PCR machine (Applied Biosystems, UK) using a standardised profile (initial denaturation of 95° C. for 10 minutes, followed by 40 cycles of 15 seconds of denaturation at 95° C. and 60 seconds of annealing/extension at 60/65° C., depending on the primers. A dissociation stage was added after the 40 cycles to generate a melting curve. Analysis was performed using the Applied Biosystems QuantStudio Real-Time PCR Software v1.2. The primer sequences for Actin, Villin, Occludin TJP1 and TJP2 are provided in the sequence listing.
(In general: In qPCR the cycle at which signal appears reflects the starting amount.)

For assay [5], the system named is mouse Splenocytes. Nature of the assay: Spleen cytokine assay ex vivo (LPS or ConA stimulation). It counts as in vivo. As for the experimental part: Spleens were collected immediately in 5 mL RPMI media following sacrifice and cultured immediately. Spleen cells were first homogenised in this RPMI media, followed by 5 mins incubation with 1 ml of RBC lysis buffer (11814389001 ROCHE, Sigma). A further 10 ml of RPMI media was added, followed by 200G centrifugation for 5 mins. The supernatant was then filtered through 40 um strainer. Cells were counted and seeded (4,000,000/mL media). After 2.5 h of adaptation, cells were stimulated with lipopolysaccharide (LPS-2 μg/ml) or concanavalin A (ConA-2.5 μg/ml) for 24 h. Following stimulation, the supernatants were harvested to assess the cytokine release using Proinflammatory Panel 1 (mouse) V-PLEX Kit (Meso Scale Discovery, Maryland, USA) for TNFα, IL-10, IL-1β, Interferon γ, CXCL2 and IL6. The analyses were performed using MESO QuickPlex SQ 120, SECTOR Imager 2400, SECTOR Imager 6000, SECTOR S 600.
The ex-vivo splenocyte assay involves challenging the splenocytes (cells isolated from the spleen—a main organ involved in immune defense), with a bacterio- or viral-mimetic challenge.

Assay [6] relates to SH-SY5Y cells. Kind of assay: MAP2 and β3-tubulin immunoblotting / confocal microscopy. Format: cell-based, human. The note with it: treated 24 h; actin loading control. As for the experimental part:
Cells were seeded onto 8-well chamber slides (Marienfeld Laboratory Glassware) at 5×10^4 cells/well overnight and were treated with 10% bacterial supernatant for 24 h. For differentiation, cells were treated with 10 nM RA for 5 days before treating with cell-free bacterial supernatant for 24 h. Afterwards, the cells were fixed with 4% paraformaldehyde in PBS for 20 minutes at room temperature (RT). Fixed cells were washed with PBS, and permeabilized with 1% Triton X-100 in PBS for 10 minutes. After washing with PBS, the slides were incubated with blocking buffer (4% BSA/PBS) for 1 h at RT before adding anti-MAP2 antibody or β3-tubulin (sc-74421 and sc-80005 respectively, Santa Cruz Biotechnology Inc) diluted in 1% BSA/PBS for 12 h at 4° C. They were then washed twice with PBS, followed by incubation with Alexa Flour 488 conjugated anti-mouse (Molecular Probes Inc) and Alexa Flour 594 conjugated Phalloidin (ab176757, Abcam) for 1 h at RT. […]
SH-SY5Y cells cultured under the indicated conditions described above, treated with MRx0005 and MRx0029 for 24 h and then lysed in RIPA buffer containing cocktail of protease inhibitors (Roche Diagnostics, UK). […] The blots were then incubated with the appropriate horseradish peroxidase (HRP)-conjugated secondary antibody, and proteins were detected by chemiluminescence detection kit (Pierce Biotechnology, Rockford, Ill.). […]

For the substance Megasphaera massiliensis [MRx0029], the “generation of ROS” value in assay [1] is “did not have an effect”. The “Inhibition of class II HDACs” value in assay [2] is given as “not as significant”. The “secretion of BDNF” value in assay [3] is listed as “increases”. For the same substance, in assay [4], the “Occludin mRNA expression” value is listed as “enhanced”, the “Tight Junction Protein 1 (TJP1) mRNA expression” value is reported as “enhanced”, the “Tight Junction Protein 2 (TJP2) mRNA expression” value is recorded as “enhanced” and the “Vlillin mRNA expression” value is on record as “enhanced”. In addition, in assay [5] (challenge with LPS), the interleukin-6 in splenocytes entry is “reduction”, the interleukin-113 in splenocytes result is on record as “reduction” and the “levels of interferon-γ in splenocytes” value is given as “reduction”. Moreover, the “levels of the chemoattractant CXCL1” value in assay [5] (splenocytes) is reported as “increase”. In assay [6], the “level expression of MAP2 (immunoblot)” value is listed as “increase”.
